Measured values as given in paper PMC11229439 (GeroScience, 2023).
pKi: −log10 of the molar value.

Target: T1, cystathionine γ-lyase (CGL) (Rattus norvegicus, UniProt P18757)
T1 construct: gene Cth
Test: homoserine γ-elimination assay (2-oxobutanoate), Dixon plot
Type: biochemical

T1 sequence (P18757 whole entry): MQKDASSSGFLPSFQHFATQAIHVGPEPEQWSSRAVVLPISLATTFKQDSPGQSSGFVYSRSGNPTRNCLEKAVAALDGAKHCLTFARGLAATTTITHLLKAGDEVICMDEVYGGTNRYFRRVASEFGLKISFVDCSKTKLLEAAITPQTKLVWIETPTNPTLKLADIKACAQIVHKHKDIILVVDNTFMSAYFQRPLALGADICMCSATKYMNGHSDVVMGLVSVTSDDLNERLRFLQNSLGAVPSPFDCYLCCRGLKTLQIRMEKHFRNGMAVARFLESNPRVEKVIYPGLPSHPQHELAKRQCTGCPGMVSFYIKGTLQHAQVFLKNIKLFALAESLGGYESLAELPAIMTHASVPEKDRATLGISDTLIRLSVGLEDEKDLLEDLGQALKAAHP

N[C@@H](CS)C(=O)O [cysteine]
pKi: 3.28
